Source: patent US10406120B2, “Methods and compositions for treating kidney disorders” (Golden Biotechnology Corporation, priority 2013, dated 2019)

Assay: AcP-IgAN model: urine protein and renal function (BUN, Cr)
Type: in vivo, B cell-deficient mice
Details: AcP-IgAN mice
Procedure: B cell-deficient mice (B6.129S2-Igh-6tm1Cgn/J) were obtained from the Academia Sinica (Professor John T. Kung, Institute of Molecular Biology), and maintained at the animal center of the National Defense Medical Center, Taipei, Taiwan. AcP-IgAN was induced in the mice by daily injection of purified IgA anti-phosphorylcholine antibodies and pneumococcal C-polysaccharide (PnC) as described previously (Chao, et al., Kidney Int. 70:283-297; 2006). All animal experiments were performed with the approval of the Institutional Animal Care and Use Committee of The National Defense Medical Center, Taiwan, and were consistent with the NIH Guide for the Care and Use of Laboratory Animals.
Body weight of the mice was measured weekly. Urine samples were collected in metabolic cages weekly, and urine protein determined followed the know methods (Chao, et al., Kidney Int. 70:283-297; 2006). Serum samples were collected at day 3 and day 28 to measure serum levels of blood urea nitrogen (BUN) and creatinine (Cr).

[1] = day 3, between control AcP-IgAN, AcP-IgAN+Antroq and normal control mice
[2] = day 28, vs control AcP-IgAN mice

## COC1=C(OC)[C@H](O)[C@H](C/C=C(\C)CC/C=C(\C)CCC=C(C)C)[C@@H](C)C1=O [Compound 1, Antroquinonol]
50 mg/kg, day 7 to day 28, vs control AcP-IgAN mice (vehicle)
  urine protein levels: greatly suppressed
Compared to normal controls
  proteinuria: mild proteinuria
[1]
  serum levels of BUN: no significant difference
  serum levels of Cr: no significant difference
[2]
  serum levels of BUN: much better renal function
  serum levels of creatinine: much better renal function
